Source: PubChem BioAssay (NCI)
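1) Cells in 96-well plates. 2) Compound, 48 h, 5 concentrations. 3) Linear interpolation between surrounding doses. 4) Unreached endpoint = highest concentration. Here, GI50 denotes the concentration required for 50% inhibition of growth. Definition used: TGI = concentration required for complete inhibition of growth.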

Columns and labels:
Assay in all cases: NCI tumour cell line growth inhibition, 48 h
SF-268 CNS = tested on: SF-268 CNS
HCT-116 colon = tested on: HCT-116 colon
BT-549 breast = tested on: BT-549 breast
HOP-62 NSCLC = tested on: HOP-62 NSCLC
HS 578T breast = tested on: HS 578T breast
OVCAR-3 ovarian = tested on: OVCAR-3 ovarian
MCF7 breast = tested on: MCF7 breast
MALME-3M melanoma = tested on: MALME-3M melanoma
SR leukemia = tested on: SR leukemia
LOX IMVI melanoma = tested on: LOX IMVI melanoma
EKVX NSCLC = tested on: EKVX NSCLC
SN12C renal = tested on: SN12C renal
SW-620 colon = tested on: SW-620 colon
MDA-MB-435 = tested on: MDA-MB-435
IGROV1 ovarian = tested on: IGROV1 ovarian
ACHN renal = tested on: ACHN renal
HT29 colon = tested on: HT29 colon
NCI-H460 lung = tested on: NCI-H460 lung
SK-MEL-2 melanoma = tested on: SK-MEL-2 melanoma
MOLT-4 leukemia = tested on: MOLT-4 leukemia
NCI-H226 lung = tested on: NCI-H226 lung
COLO 205 colon = tested on: COLO 205 colon
SK-MEL-28 melanoma = tested on: SK-MEL-28 melanoma
SK-OV-3 ovarian = tested on: SK-OV-3 ovarian
A549 NSCLC = tested on: A549 NSCLC
OVCAR-5 ovarian = tested on: OVCAR-5 ovarian
SNB-19 CNS = tested on: SNB-19 CNS
HL-60(TB) leukemia = tested on: HL-60(TB) leukemia
SNB-75 CNS = tested on: SNB-75 CNS
HCT-15 colon = tested on: HCT-15 colon
UACC-257 melanoma = tested on: UACC-257 melanoma
SF-295 CNS = tested on: SF-295 CNS
HCC-2998 colon = tested on: HCC-2998 colon
CCRF-CEM leukemia = tested on: CCRF-CEM leukemia
TK-10 renal = tested on: TK-10 renal
OVCAR-4 ovarian = tested on: OVCAR-4 ovarian
A498 renal = tested on: A498 renal
CAKI-1 renal = tested on: CAKI-1 renal
SK-MEL-5 melanoma = tested on: SK-MEL-5 melanoma
T-47D breast = tested on: T-47D breast
MDA-MB-231 breast = tested on: MDA-MB-231 breast
NCI-H522 lung = tested on: NCI-H522 lung
RXF 393 renal = tested on: RXF 393 renal
U251 CNS = tested on: U251 CNS
786-0 renal = tested on: 786-0 renal
DU-145 prostate = tested on: DU-145 prostate
OVCAR-8 ovarian = tested on: OVCAR-8 ovarian
KM12 colon = tested on: KM12 colon
SF-539 CNS = tested on: SF-539 CNS
K-562 leukemia = tested on: K-562 leukemia
HOP-92 NSCLC = tested on: HOP-92 NSCLC
PC-3 prostate = tested on: PC-3 prostate
M14 melanoma = tested on: M14 melanoma
MDA-MB-468 breast = tested on: MDA-MB-468 breast
UACC-62 melanoma = tested on: UACC-62 melanoma
RPMI-8226 leukemia = tested on: RPMI-8226 leukemia
NCI-H23 lung = tested on: NCI-H23 lung
UO-31 renal = tested on: UO-31 renal

With O=C([Se]C1C=CCCC1)c1ccc(C(=O)[Se]C2C=CCCC2)s1 (stereo unspecified) the GI50 (SF-268 CNS) was 3.34 µM, the TGI (SF-268 CNS) was 16.9 µM and the GI50 (HCT-116 colon) was 2.87 µM. It also gave a TGI (HCT-116 colon) of 8.75 µM, a GI50 (BT-549 breast) of 3.55 µM and a TGI (BT-549 breast) of 11.7 µM. It also gave a GI50 (HOP-62 NSCLC) of 1.17 µM, a TGI (HOP-62 NSCLC) of 6.65 µM and a GI50 (HS 578T breast) of 2.36 µM. It also gave a TGI (HS 578T breast) of 6.69 µM, a GI50 (OVCAR-3 ovarian) of 2.13 µM and a TGI (OVCAR-3 ovarian) of 4.7 µM. The GI50 (MCF7 breast) was 2.79 µM, the TGI (MCF7 breast) was 10.6 µM and the GI50 (MALME-3M melanoma) was 2.27 µM. For the same compound, the TGI (MALME-3M melanoma) was 5.52 µM, the GI50 (SR leukemia) was 2.26 µM and the TGI (SR leukemia) was 5.53 µM. It also gave a GI50 (LOX IMVI melanoma) of 2.71 µM, a TGI (LOX IMVI melanoma) of 8.88 µM and a GI50 (EKVX NSCLC) of 2.01 µM. For the same compound, the TGI (EKVX NSCLC) was 4.7 µM, the GI50 (SN12C renal) was 2.05 µM and the TGI (SN12C renal) was 4.34 µM. For the same compound, the GI50 (SW-620 colon) was 2.32 µM, the TGI (SW-620 colon) was 6.01 µM and the GI50 (MDA-MB-435) was 6.42 µM. It also gave a TGI (MDA-MB-435) of 23.1 µM, a GI50 (IGROV1 ovarian) of 1.81 µM and a TGI (IGROV1 ovarian) of 3.48 µM. The GI50 (ACHN renal) was 2.32 µM, the TGI (ACHN renal) was 5.58 µM and the GI50 (HT29 colon) was 4.01 µM. For the same compound, the TGI (HT29 colon) was 25.7 µM, the GI50 (NCI-H460 lung) was 1.43 µM and the TGI (NCI-H460 lung) was 10.1 µM. It also gave a GI50 (SK-MEL-2 melanoma) of 1.77 µM, a TGI (SK-MEL-2 melanoma) of 3.71 µM and a GI50 (MOLT-4 leukemia) of 2.89 µM. It also gave a TGI (MOLT-4 leukemia) of 8.34 µM, a GI50 (NCI-H226 lung) of 3.42 µM and a TGI (NCI-H226 lung) of 15.2 µM. The GI50 (COLO 205 colon) was 2.42 µM, the TGI (COLO 205 colon) was 7.25 µM and the GI50 (SK-MEL-28 melanoma) was 3.11 µM. The TGI (SK-MEL-28 melanoma) was 11.6 µM, the GI50 (SK-OV-3 ovarian) was 2.33 µM and the TGI (SK-OV-3 ovarian) was 5.33 µM. It also gave a GI50 (A549 NSCLC) of 3.09 µM, a TGI (A549 NSCLC) of 18.7 µM and a GI50 (OVCAR-5 ovarian) of 2.07 µM. It also gave a TGI (OVCAR-5 ovarian) of 4.75 µM, a GI50 (SNB-19 CNS) of 1.35 µM and a TGI (SNB-19 CNS) of 3.56 µM. For the same compound, the GI50 (HL-60(TB) leukemia) was 1.94 µM, the TGI (HL-60(TB) leukemia) was 4.81 µM and the GI50 (SNB-75 CNS) was 1.38 µM. The TGI (SNB-75 CNS) was 2.94 µM, the GI50 (HCT-15 colon) was 3.1 µM and the TGI (HCT-15 colon) was 11.6 µM. For the same compound, the GI50 (UACC-257 melanoma) was 2.44 µM, the TGI (UACC-257 melanoma) was 6.89 µM and the GI50 (SF-295 CNS) was 0.366 µM. For the same compound, the TGI (SF-295 CNS) was 1.64 µM, the GI50 (HCC-2998 colon) was 2.49 µM and the TGI (HCC-2998 colon) was 6.19 µM. The GI50 (CCRF-CEM leukemia) was 2.68 µM, the TGI (CCRF-CEM leukemia) was 8.66 µM and the GI50 (TK-10 renal) was 1.87 µM. For the same compound, the TGI (TK-10 renal) was 3.88 µM, the GI50 (OVCAR-4 ovarian) was 2.19 µM and the TGI (OVCAR-4 ovarian) was 4.98 µM. It also gave a GI50 (A498 renal) of 2.47 µM, a TGI (A498 renal) of 7.29 µM and a GI50 (CAKI-1 renal) of 2.93 µM. For the same compound, the TGI (CAKI-1 renal) was 10.2 µM, the GI50 (SK-MEL-5 melanoma) was 1.83 µM and the TGI (SK-MEL-5 melanoma) was 3.99 µM. It also gave a GI50 (T-47D breast) of 2.17 µM, a TGI (T-47D breast) of 5.19 µM and a GI50 (MDA-MB-231 breast) of 2.02 µM. It also gave a TGI (MDA-MB-231 breast) of 4.16 µM, a GI50 (NCI-H522 lung) of 1.71 µM and a TGI (NCI-H522 lung) of 3.32 µM. For the same compound, the GI50 (RXF 393 renal) was 2.37 µM, the TGI (RXF 393 renal) was 5.69 µM and the GI50 (U251 CNS) was 1.94 µM. It also gave a TGI (U251 CNS) of 4.47 µM, a GI50 (786-0 renal) of 2.02 µM and a TGI (786-0 renal) of 4.08 µM. It also gave a GI50 (DU-145 prostate) of 3.48 µM, a TGI (DU-145 prostate) of 11.5 µM and a GI50 (OVCAR-8 ovarian) of 1.79 µM. It also gave a TGI (OVCAR-8 ovarian) of 3.47 µM, a GI50 (KM12 colon) of 2.76 µM and a TGI (KM12 colon) of 7.08 µM. The GI50 (SF-539 CNS) was 1.82 µM, the TGI (SF-539 CNS) was 3.23 µM and the GI50 (K-562 leukemia) was 3.96 µM. The TGI (K-562 leukemia) was 49.7 µM, the GI50 (HOP-92 NSCLC) was 2.85 µM and the TGI (HOP-92 NSCLC) was 11 µM. It also gave a GI50 (PC-3 prostate) of 1.95 µM, a TGI (PC-3 prostate) of 5.95 µM and a GI50 (M14 melanoma) of 2.02 µM. For the same compound, the TGI (M14 melanoma) was 4.56 µM, the GI50 (MDA-MB-468 breast) was 2.13 µM and the TGI (MDA-MB-468 breast) was 5.18 µM. The GI50 (UACC-62 melanoma) was 1.92 µM, the TGI (UACC-62 melanoma) was 4.2 µM and the GI50 (RPMI-8226 leukemia) was 2.53 µM. It also gave a TGI (RPMI-8226 leukemia) of 6.53 µM, a GI50 (NCI-H23 lung) of 1.95 µM and a TGI (NCI-H23 lung) of 4.18 µM. It also gave a GI50 (UO-31 renal) of 1.73 µM and a TGI (UO-31 renal) of 3.38 µM.
